Laboratory results from patent publication US10052385B2, “Formulations of bendamustine” (Eagle Pharmaceuticals, Inc., priority 2012, dated 2018).
Where a name gives a salt, the structure may show the parent alone. Read-outs that look alike come from different tables or passages of the source.

Assay: Solubility of bendamustine HCl in 0.9% saline with non-aqueous solubilizer (Example 1)
Type: physicochemical
Conditions: for solubility at 30 min: 22.5 °C; for solubility at 30 min / solubility at 24 h: thermodynamic from solid; for solubility at 24 h: 5 °C
Protocol: Essentially, an excess of bendamustine HCl was added to solvents comprising of various volume percent of the non-aqueous solubilizer in 0.9% saline, and allowed to equilibrate with shaking for 30 minutes at room temperature, or for 24 hours at refrigerated temperature. At the end of the equilibration step, the suspensions were filtered through a 0.2 micron filter to remove undissolved bendamustine, and the filtrate solutions analyzed for bendamustine HCl content using a HPLC assay; quantification was performed against a bendamustine HCl reference standard.

## Cn1c(CCCC(=O)O)nc2cc(N(CCCl)CCCl)ccc21 [bendamustine HCl]
0.9% saline with 5 mg/ml monothioglycerol, saline or isotonic, Room temperature, API Source B, solvent also contained 5 mg/ml monothioglycerol, 100.0% Normal Saline, 0.0% Non-aqueous Solubilizer, read-out: Solubility of bendamustine HCl
  solubility at 30 min: ~3300 µg/mL
0.9% saline, saline or isotonic, 5° C., API Source A, 100.0% Normal Saline, 0.0% Non-aqueous Solubilizer (90:10 PEG 400/PG), read-out: Solubility of bendamustine HCl
  solubility at 24 h: 1180 µg/mL
0.9% saline, saline or isotonic, Room temperature, API Source A, 100.0% Normal Saline, 0.0% Non-aqueous Solubilizer (90:10 PEG 400/PG), read-out: Solubility of bendamustine HCl
  solubility at 30 min: 3460 µg/mL
Aqueous with cosolvent or surfactant or cyclodextrin, 5° C., API Source A, 80.0% Normal Saline, 20.0% Non-aqueous Solubilizer (90:10 PEG 400/PG), read-out: Solubility of bendamustine HCl
  solubility at 24 h: 3820 µg/mL
Aqueous with cosolvent or surfactant or cyclodextrin, 5° C., API Source A, 82.5% Normal Saline, 17.5% Non-aqueous Solubilizer (90:10 PEG 400/PG), read-out: Solubility of bendamustine HCl
  solubility at 24 h: 3330 µg/mL
Aqueous with cosolvent or surfactant or cyclodextrin, 5° C., API Source A, 85.0% Normal Saline, […] Non-aqueous Solubilizer (90:10 PEG 400/PG), read-out: Solubility of bendamustine HCl
  solubility at 24 h: 2900 µg/mL
Aqueous with cosolvent or surfactant or cyclodextrin, 5° C., API Source A, 90.0% Normal Saline, 10.0% Non-aqueous Solubilizer (90:10 PEG 400/PG), read-out: Solubility of bendamustine HCl
  solubility at 24 h: 2430 µg/mL
Aqueous with cosolvent or surfactant or cyclodextrin, 5° C., API Source A, 95.0% Normal Saline, 5.0% Non-aqueous Solubilizer (90:10 PEG 400/PG), read-out: Solubility of bendamustine HCl
  solubility at 24 h: 2020 µg/mL
Aqueous with cosolvent or surfactant or cyclodextrin, refrigerated, 19.4% of the non-aqueous component in the final 100 ml admixture, read-out: solubility of bendamustine HCl in final admixture
  solubility at 24 h: ~3800 µg/mL
Aqueous with cosolvent or surfactant or cyclodextrin, Room temperature, API Source A, 70.0% Normal Saline, 30.0% Non-aqueous Solubilizer (90:10 PEG 400/PG), read-out: Solubility of bendamustine HCl
  solubility at 30 min: 12000 µg/mL
Aqueous with cosolvent or surfactant or cyclodextrin, Room temperature, API Source A, 80.0% Normal Saline, 20.0% Non-aqueous Solubilizer (90:10 PEG 400/PG), read-out: Solubility of bendamustine HCl
  solubility at 30 min: 8640 µg/mL
Aqueous with cosolvent or surfactant or cyclodextrin, Room temperature, API Source A, 85.0% Normal Saline, […] Non-aqueous Solubilizer (90:10 PEG 400/PG), read-out: Solubility of bendamustine HCl
  solubility at 30 min: 7010 µg/mL
Aqueous with cosolvent or surfactant or cyclodextrin, Room temperature, API Source A, 90.0% Normal Saline, 10.0% Non-aqueous Solubilizer (90:10 PEG 400/PG), read-out: Solubility of bendamustine HCl
  solubility at 30 min: 5630 µg/mL
Aqueous with cosolvent or surfactant or cyclodextrin, Room temperature, API Source A, 95.0% Normal Saline, 5.0% Non-aqueous Solubilizer (90:10 PEG 400/PG), read-out: Solubility of bendamustine HCl
  solubility at 30 min: 4430 µg/mL
Aqueous with cosolvent or surfactant or cyclodextrin, room temperature, 16.1% of the non-aqueous component in the final 50 ml admixture, read-out: room temperature solubility of bendamustine HCl in final admixture
  solubility at 30 min: ~6500 µg/mL
Saline or isotonic, Room temperature, API Source A, 97.5% Normal Saline, 2.5% Non-aqueous Solubilizer (90:10 PEG 400/PG), read-out: Solubility of bendamustine HCl
  solubility at 30 min: 3990 µg/mL
Saline or isotonic, Room temperature, API Source B, solvent also contained 5 mg/ml monothioglycerol, 97.5% Normal Saline, 2.5% Non-aqueous Solubilizer, read-out: Solubility of bendamustine HCl
  solubility at 30 min: 3890 µg/mL
Room temperature, API Source B, solvent also contained 5 mg/ml monothioglycerol, 70.0% Normal Saline, 30.0% Non-aqueous Solubilizer
  Solubility of bendamustine HCl: 11407 µg/mL
Room temperature, API Source B, solvent also contained 5 mg/ml monothioglycerol, 80.0% Normal Saline, 20.0% Non-aqueous Solubilizer, HCl
  Solubility of bendamustine HCl: 8492 µg/mL
Room temperature, API Source B, solvent also contained 5 mg/ml monothioglycerol, 82.5% Normal Saline, 17.5% Non-aqueous Solubilizer
  Solubility of bendamustine HCl: 7641 µg/mL
Room temperature, API Source B, solvent also contained 5 mg/ml monothioglycerol, 85.0% Normal Saline, […] Non-aqueous Solubilizer
  Solubility of bendamustine HCl: 6554 µg/mL
Room temperature, API Source B, solvent also contained 5 mg/ml monothioglycerol, 87.5% Normal Saline, 12.5% Non-aqueous Solubilizer
  Solubility of bendamustine HCl: 5825 µg/mL
Room temperature, API Source B, solvent also contained 5 mg/ml monothioglycerol, 90.0% Normal Saline, 10.0% Non-aqueous Solubilizer
  Solubility of bendamustine HCl: 5351 µg/mL
Room temperature, API Source B, solvent also contained 5 mg/ml monothioglycerol, 92.5% Normal Saline, 7.5% Non-aqueous Solubilizer
  Solubility of bendamustine HCl: 4742 µg/mL
Room temperature, API Source B, solvent also contained 5 mg/ml monothioglycerol, 95.0% Normal Saline, 5.0% Non-aqueous Solubilizer
  Solubility of bendamustine HCl: 4204 µg/mL
